# Experimental data reported in patent US20140309192A1, “MODULATORS OF THE G PROTEIN-COUPLED MAS RECEPTOR AND THE TREATMENT OF DISORDERS RELATED THERETO” (ARENA PHARMACEUTICALS, INC., priority 2011, published 2014).
# Entries after “also recorded” stand apart in the source; their conditions may differ.
# Experiments:
# Male Sprague Dawley rats = test: Carrageenan-induced inflammatory paw swelling model; assay type: in vivo, rat; details: i.p. 30 minutes prior to λ-carrageenan; AR305352 1, 3 and 10 mg/kg; dexamethasone 2 mg/kg; 1, 2, 3, 6 and 24 hours
# Experimental: In a blinded and randomized fashion, rats were intraperitoneally dosed with a Mas receptor inverse agonist (AR305352, N-(4-chloro-2-(4-(3,3,3-trifluoropropyl)piperazin-1-yl)phenyl)-2,6-difluorobenzamide, see Zhang, T., et. al., Am J Physiol Heart Circ Physiol 302:H299-H311, (2012)) at 1, 3 and 10 mg/kg, 20% HPCD or 2 mg/kg of dexamethasone, 30 minutes prior to injection of 100 μl of saline or 100 μg of λ-carrageenan into the left or right foot pad of anesthetized animals. The difference in footpad width was measured using a caliper at 1, 2, 3, 6 and 24 hours post-injection.
# control HEK293 cells = test: HTRF IP1 assay in control HEK293 cells; assay type: cell-based; details: IP assay
# Excerpt: Human and rat Mas receptors were either transiently or stably expressed in HEK293 cells. For transient transfections, human or rat Mas in pHM6 vector were transfected into HEK293 cells using Lipofectamine® (Invitrogen #18324-012). HEK293 cells transfected with empty pHM6 vector were used as a control. For generation of stable cell lines, cDNA expression plasmids encoding human or rat Mas genes and the neo^r gene were transfected into HEK293 cells (ATCC# CRL-1573) using Lipofectamine® (Invitrogen) according to the manufacturer's instructions. Stable receptor expressing pools were then generated over 3 weeks by standard techniques in the presence of 500 μg/mL Geneticin® (Gibco). Individual receptor stable pools were dilution cloned using standard techniques and clones were comparatively evaluated in inositol phosphate accumulation assays. Preferred clones were banked and cultured as needed. HEK293 cells were used as controls. The 384 well IP-One HTRF® Assay (Cisbio #62P1APEJ) was performed as described by the manufacturer's protocol. Cells were plated in at 100,000 cells per well in 15 μL DMEM (Gibco #11960) and incubated in a CO2 incubator at 37° C. for 2 h. […] IP1 levels in each well were calculated according to the standard curves on each plate. […]
# rat Mas receptor = target: T1, rat Mas receptor (Rattus norvegicus, UniProt P12526); test: HTRF IP1 assay, HEK293 cells expressing rat Mas receptor; assay type: cell-based
# T1 construct: expressed in transfected cells; host or cells: HEK293 (ATCC CRL-1573)
# T1 sequence (P12526 1-324): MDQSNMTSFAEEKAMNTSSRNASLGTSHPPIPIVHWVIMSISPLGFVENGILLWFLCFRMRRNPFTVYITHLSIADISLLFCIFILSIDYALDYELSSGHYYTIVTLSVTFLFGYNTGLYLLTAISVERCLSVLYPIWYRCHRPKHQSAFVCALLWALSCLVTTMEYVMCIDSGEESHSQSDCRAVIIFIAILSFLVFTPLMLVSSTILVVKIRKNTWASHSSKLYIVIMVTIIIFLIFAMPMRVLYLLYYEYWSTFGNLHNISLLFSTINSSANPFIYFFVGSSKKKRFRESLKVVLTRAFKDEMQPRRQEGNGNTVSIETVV
# Excerpt: (§1) Human and rat Mas receptors were either transiently or stably expressed in HEK293 cells. For transient transfections, human or rat Mas in pHM6 vector were transfected into HEK293 cells using Lipofectamine® (Invitrogen #18324-012). HEK293 cells transfected with empty pHM6 vector were used as a control. For generation of stable cell lines, cDNA expression plasmids encoding human or rat Mas genes and the neo^r gene were transfected into HEK293 cells (ATCC# CRL-1573) using Lipofectamine® (Invitrogen) according to the manufacturer's instructions. Stable receptor expressing pools were then generated over 3 weeks by standard techniques in the presence of 500 μg/mL Geneticin® (Gibco). Individual receptor stable pools were dilution cloned using standard techniques and clones were comparatively evaluated in inositol phosphate accumulation assays. Preferred clones were banked and cultured as needed. HEK293 cells were used as controls. The 384 well IP-One HTRF® Assay (Cisbio #62P1APEJ) was performed as described by the manufacturer's protocol. Cells were plated in at 100,000 cells per well in 15 μL DMEM (Gibco #11960) and incubated in a CO2 incubator at 37° C. for 2 h. Five μL of compounds diluted in 2× stimulation buffer plus 0.4% BSA (Sigma (#A3059) were added to each well and serial diluted IP1 standards (Cisbio #62IP1CDA) were also added to corresponding wells at this step. After the cells were incubated for 4 h in a CO2 incubator at 37° C., d2-labeled IP1 and cryptate-labeled anti-IP1 monoclonal antibody diluted in lysis buffer were added sequentially in 10 μL per well and the assay plates were kept in the dark at room temperature overnight. Ratiometric measurements of fluorescence emission at 665 nm and 620 nm were obtained using a Pherastar fluorometer (BMG Labtech). IP1 levels in each well were calculated according to the standard curves on each plate. IC50 values were obtained by fitting data to a nonlinear curve-fitting program (GraphPad Software, Inc., La Jolla Calif.).
# [1] = system: isolated perfused rat hearts; test: Ex vivo coronary flow, Langendorff perfused isolated rat hearts
# Experimental: Coronary flow was measured in male Mas^−/− and Mas^+/+ mice, and in male Sprague-Dawley rats using Langendorff perfused isolated hearts. Freshly isolated hearts were placed on a Langendorff apparatus (Harvard Apparatus) and perfused at a constant pressure of 80 mmHg with a modified Krebs-Henseleit buffer solution (Sigma K3753) and aerated with 95% oxygen and 5% carbon dioxide, pH 7.35-7.4. The temperature was maintained at 37° C. by surrounding the heart with a water-heated glassware chamber. Coronary flow was measured using a flow measurement system (Harvard Apparatus) which included the transit time flow meter and a flow probe built into an adaptor block located at the perfusate inflow port. Data were recorded continuously using an ISOHEART data acquisition system (Harvard Apparatus). After a 20-min equilibration period, Mas compounds were added to the perfusion buffer reservoir at the desired concentration (agonist AR234960 at 1 μM, or inverse agonist AR244555 at 5 μM) and coronary flow was recorded for 10 min
# To determine the role of the Mas-Gq-PLC pathway in regulating coronary flow, the Mas inverse agonist AR244555 (5 μM) or the PLC inhibitor U-73122 (0.5 μM) was added to the perfusion buffer for 10 min and then the agonist AR234960 (1 μM) was added to the perfusion buffer. Coronary flow was recorded for another 10 min Changes in coronary flow induced by AR234960 were calculated as percentage of the coronary flow at 10 min following AR234960 treatment, relative to the coronary flow measured immediately prior to addition of AR234960. This protocol allowed for measurement of agonist mediated vasoconstrictor activity, and accounted for changes in baseline coronary flow due to inverse agonist treatment alone.
# To determine whether Mas agonist-induced changes in coronary flow were endothelium-dependent, the responses in Langendorff perfused hearts were measured after chemical removal of endothelium with sodium deoxycholate. After a 20-min equilibration period, sodium deoxycholate was added to the perfusion buffer at 0.2 mg/mL for 3 min and then washed out for 10 min Mas compounds were added and coronary flow was recorded for 10 min Adenosine (1 μM), a coronary vasodilator that targets the endothelium, was used as a control to verify effective removal of endothelium.
# [2] = system: isolated perfused rat hearts; test: Global ischemia-reperfusion in Langendorff perfused rat hearts (coronary flow, arrhythmias)
# Experimental: For ischemia-reperfusion experiments, Langendorff perfused rat hearts were equilibrated for 20 min and then baseline coronary flow was recorded for 10 min Thereafter, all hearts were subjected to 30 min of global ischemia by stopping perfusate flow, followed by 30 min of reperfusion with either vehicle (0.01% DMSO), Mas agonist AR234960 (1 μM) or Mas inverse agonist AR244555 (5 μM) added to the perfusion buffer. Electrocardiography was also continuously recorded during the observation period through electrodes attached directly to the surface of the ventricles to detect cardiac arrhythmias during reperfusion.
# Male Sprague-Dawley rats = test: Coronary artery ligation model, LV area at risk and infarct size (Example 5.6); assay type: in vivo, rat; details: 10 mg/kg i.v. bolus 10 min before ligation or 3 min before reperfusion; 30 min ischemia, 2 h reperfusion
# human Mas receptor = target: T2, human Mas receptor (Homo sapiens, UniProt P04201); test: HTRF IP1 assay, HEK293 cells expressing human Mas receptor; assay type: cell-based
# T2 construct: expressed in transfected cells; host or cells: HEK293 (ATCC CRL-1573)
# T2 sequence (P04201 1-325): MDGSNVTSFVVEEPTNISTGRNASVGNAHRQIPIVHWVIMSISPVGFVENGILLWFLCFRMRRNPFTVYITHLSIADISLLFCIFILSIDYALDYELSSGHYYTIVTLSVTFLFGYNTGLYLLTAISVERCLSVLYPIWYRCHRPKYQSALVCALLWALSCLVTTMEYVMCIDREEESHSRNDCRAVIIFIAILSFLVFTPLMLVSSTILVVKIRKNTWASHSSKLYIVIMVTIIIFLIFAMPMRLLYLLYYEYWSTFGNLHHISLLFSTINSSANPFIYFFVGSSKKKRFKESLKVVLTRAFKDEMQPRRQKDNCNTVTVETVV
# Excerpt: as §1
# Mas receptor = details: Dong, et al., Cell 106:619-632 (2001); cited from earlier work
molecule,measurement,setting,value
"O=C(Nc1ccc(Cl)cc1N1CCN(CCC(F)(F)F)CC1)c1c(F)cccc1F [AR305352, N-(4-chloro-2-(4-(3,3,3-trifluoropropyl)piperazin-1-yl)phenyl)-2,6-difluorobenzamide]",foot-pad inflammation / paw swelling,Male Sprague Dawley rats,suppress foot-pad inflammation in a dose-dependent manner
"C=CCCN1CCC2(CC1)CN(C(=O)c1c(F)cccc1F)c1ccc(Cl)cc12 [AR244555, 1′-(but-3-enyl)-1,2-dihydro-5-chloro-1-(2,6-difluoro-benzoyl)-spiro[3H-indole-3,4′-piperidine]]",effects in control HEK293 cells,control HEK293 cells,There were detected effects
same,IC50,"rat Mas receptor; IP assay, HEK293 cells stably expressing rat Mas, 4 h, means ± SEM, read-out: Rat IC50",348 ± 67 nM
same,"ligand activity in IP assay, rat Mas","rat Mas receptor; Table C, line under Rat IC50",(inverse agonist)
same,coronary flow in isolated perfused rat hearts,"[1]; AR234960 1 μM, AR244555 5 μM, 10 min",modest but significant increase; also recorded: significantly increased
same,decrease in coronary flow induced by AR234960 (1 μM) after pretreatment,[1]; pretreatment 10 min: AR244555 5 μM or U-73122 0.5 μM,prevented the decrease
same,arrhythmias during reperfusion,"[2]; 5 μM, six hearts",no arrhythmias were observed
same,coronary flow during reperfusion compared to vehicle treated hearts,"[2]; 30 min global ischemia, 30 min reperfusion, AR234960 1 μM, AR244555 5 μM in perfusate during reperfusion",significantly elevated coronary flow
same,infarct size (percentage of the area at risk) vs vehicle,Male Sprague-Dawley rats,reduced infarct size by about half; also recorded: cardioprotective
same,IC50,"human Mas receptor; IP assay, HEK293 cells stably expressing human Mas, 4 h, means ± SEM, read-out: Human IC50",186 ± 11 nM
same,"ligand activity in IP assay, human Mas","human Mas receptor; Table C, line under Human IC50",(inverse agonist)
Nc1ncnc2c1ncn2[C@@H]1O[C@H](CO)[C@@H](O)[C@H]1O [adenosine],compound-mediated change in coronary flow in endothelium denuded hearts,"[1]; after sodium deoxycholate, AR234960 1 μM, adenosine 1 μM",abolished
NPFF,EC50,Mas receptor,~400 nM
